Reference: ChEMBL document CHEMBL1150581, “Batzelline D and isobatzelline E from the indopacific sponge Zyzzya fuliginosa” (J Nat Prod, 2002)
Activity calls are given as the source filed them. The calls are words filed in the database; no cut-off is given here.

What was measured:
[1] = Inhibition of HIV1 env protein assessed as inhibition of env expressing african green monkey BSC1 cell fusion with mouse NIH3T3 cell expressing CXCR4 and Escherichia coli T7 after 2.5 hrs by beta galactosidase report gene assay; conditions: Human immunodeficiency virus 1, NIH3T3, 2.5 h
[2] = tested on: NIH3T3; assay: Inhibition of HIV1 env protein assessed as inhibition of env expressing african green monkey BSC1 cell fusion with mouse NIH3T3 cell expressing CXCR4 and Escherichia coli T7 at 1 ug/ml after 2.5 hrs by beta galactosidase report gene assay; conditions: Human immunodeficiency virus 1

SMILES	IC50 [1] [µM]	Activity [2]
Cn1cc2c3c1C(=O)C(N)=C(Cl)C3=NCC2 [ISOBATZELLINE C]	0.2	Active
Cn1cc2c3c1C(=O)C(N)=CC3=NCC2 [MAKALUVAMINE A]	5	Active
Cn1cc2c3c1C(=O)C(N)=CC3=[N+](C)CC2 [MAKALUVAMINE H]	5	Active
